Laboratory results published in patent US11214803B2, “Modulators of YAP1 expression” (Ionis Pharmaceuticals, Inc., priority 2019, dated 2022).
Strand notation (5' to 3'): a small letter for the sugar, then the base; units joined by * are phosphorothioate-linked, units joined directly phosphodiester-linked; [ ] holds rarer units or linkages, { } end groups; capitals alone tell only the bases. e = 2'-O-(2-methoxyethyl) (MOE); k = constrained ethyl (cEt); [5mC] = 5-methylcytosine; d = 2'-deoxy (DNA)

How the values were obtained:
Type in all cases: cell-based
Yap1 mRNA [1] = assay: Dose-dependent inhibition of human Yap1 in A-431 cells (Example 8, 10,000 cells per well, RTS4814); settings: free uptake, approximately 48 hours, RTS4814; for Yap1 mRNA, % UTC: A-431 cells, 10,000 cells per well; for IC50: A-431 cells, linear regression on log/linear plot
In short: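 A-431 cells (10,000/well) dosed with modified oligonucleotides by free uptake; Yap1 mRNA measured ~48 h later with primer-probe set RTS4814, normalized to total RNA (RIBOGREEN). Values are % of untreated control; IC50 from linear regression on log/linear plot.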

Yap1 mRNA [2] = assay: Dose-dependent inhibition of human Yap1 in SNU-449 cells (Example 9, RTS36584); settings: free uptake; for % UTC (Yap1 mRNA): approximately 48 hours; for IC50: linear regression on a log/linear plot
In short: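 SNU-449 cells (10,000/well) took up modified oligonucleotides by free uptake at a range of doses for about 48 h. Yap1 mRNA was quantified with primer-probe set RTS36584, normalised to RIBOGREEN total RNA and expressed as % untreated control; IC50 from linear regression on log/linear plot.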

Yap1 mRNA [3] = assay: Antisense inhibition of human Yap1 in A-431 cells by cEt gapmers, single dose (Example 3, RTS36584); settings: Table 28; Yap1 mRNA as percent of untreated control; 3-10-3 cEt gapmers targeting SEQ ID NO.: 1, and 2
In short: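 A-431 cells (5,000/well) took up the 3-10-3 cEt gapmers by free uptake at 2,000 nM for about 48 h. Yap1 mRNA was measured by RT-qPCR with primer probe set RTS36584, normalized to RiboGreen total RNA, and given as % of untreated control.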

Row | Substance | Yap1 mRNA, % UTC (Yap1 mRNA [1]; 31.3 nM) | Yap1 mRNA, % UTC (Yap1 mRNA [1]; 125.0 nM) | Yap1 mRNA, % UTC (Yap1 mRNA [1]; 500.0 nM) | Yap1 mRNA, % UTC (Yap1 mRNA [1]; 2000.00 nM) | IC50 (Yap1 mRNA [1]) | % UTC (Yap1 mRNA) (Yap1 mRNA [2]; 31.3 nM) | % UTC (Yap1 mRNA) (Yap1 mRNA [2]; 125.0 nM) | % UTC (Yap1 mRNA) (Yap1 mRNA [2]; 500.0 nM) | % UTC (Yap1 mRNA) (Yap1 mRNA [2]; 2000.00 nM) | IC50 (Yap1 mRNA [2]) | YAP1 (% UTC) (Yap1 mRNA [3])
1 | 1074728 (antisense kT*kG*kA*dG*dG*dT*dA*dT*dA*dA*d[5mC]*dT*dG*kG*kG*k[5mC]) [compound 1074728] | 28 % UTC | 7 % UTC | 4 % UTC | 4 % UTC | < 20 nM | 69 % UTC | 45 % UTC | 19 % UTC | 8 % UTC | 100 nM | 
2 | 1074464 (kT*kT*kA*dG*dA*dG*dT*dA*dT*dG*dT*dG*dG*k[5mC]*kA*kA) [compound 1074464] | 25 % UTC | 6 % UTC | 3 % UTC | 3 % UTC | < 20 nM | 109 % UTC | 50 % UTC | 19 % UTC | 6 % UTC | 200 nM | 
3 | 1074798 (kG*k[5mC]*kT*dT*dT*dG*dG*dA*dA*dG*dA*dT*d[5mC]*kT*kG*kA) [compound 1074798] | 34 % UTC | 12 % UTC | 5 % UTC | 6 % UTC | < 20 nM | 62 % UTC | 38 % UTC | 17 % UTC | 8 % UTC | 100 nM | 4 % UTC
4 | 1198832 (kG*k[5mC]*dA*d[5mC]*dT*dT*dT*dT*dA*d[5mC]*dA*kT*eT*kA*eG*kG; antisense) [compound 1198832] |  |  |  |  |  | 77 % UTC | 53 % UTC | 23 % UTC | 13 % UTC | 100 nM | 
5 | 1198285 (kA*kT*kT*dG*dT*d[5mC]*dT*d[5mC]*dA*dT*dG*d[5mC]*k[5mC]*eT*kT*eA; antisense) [compound 1198285] |  |  |  |  |  | 67 % UTC | 41 % UTC | 16 % UTC | 5 % UTC | 100 nM | 
6 | 1198347 (kG*kT*kA*dA*dT*dA*dT*dT*dG*d[5mC]*dA*dA*kT*e[5mC]*kT*eG) [compound 1198347] |  |  |  |  |  | 67 % UTC | 54 % UTC | 24 % UTC | 8 % UTC | 100 nM | 
7 | 1198718 (kG*eA*kA*dA*dT*dT*dG*dT*d[5mC]*dT*d[5mC]*dA*eT*eG*k[5mC]*k[5mC]; antisense) [compound 1198718] |  |  |  |  |  | 87 % UTC | 37 % UTC | 14 % UTC | 4 % UTC | 100 nM | 
8 | 1198578 (GCTTTGGAAGATCTGA; modified gapmer, chemistry not fully specified) [compound 1198578] |  |  |  |  |  | 73 % UTC | 45 % UTC | 25 % UTC | 12 % UTC | 100 nM | 
9 | 1198804 (kT*kG*dT*d[5mC]*dT*d[5mC]*dA*dT*dG*d[5mC]*d[5mC]*kT*eT*kA*eT*kA; antisense) [compound 1198804] |  |  |  |  |  | 71 % UTC | 48 % UTC | 19 % UTC | 5 % UTC | 100 nM | 
10 | 1198624 (kA*k[5mC]*kT*dA*dA*dG*dT*dA*dA*dG*dG*dT*kT*kT*k[5mC]*e[5mC]; antisense) [compound 1198624] |  |  |  |  |  | 62 % UTC | 37 % UTC | 21 % UTC | 9 % UTC | 100 nM | 
11 | 1198352 (kT*kG*kT*dA*dT*dG*dT*d[5mC]*dA*dG*dA*dA*kG*eA*kG*eT; antisense) [compound 1198352] |  |  |  |  |  | 58 % UTC | 29 % UTC | 10 % UTC | 3 % UTC | 40 nM | 
